# Measurements taken from article PMC8342417, “The structure of an archaeal oligosaccharyltransferase provides insight into the strict exclusion of proline from the N-glycosylation sequon” (Communications Biology, 2021).
# Molecular target: T1, AfAglB (AglB-L, A. fulgidus oligosaccharyltransferase) (Archaeoglobus fulgidus, UniProt O29867, G617C)
# T1 construct: gene aglB3; full length 868 residues; E. coli C43(DE3); C-terminal His10 cut by thrombin leaving ELALVPR; single-subunit membrane protein in DDM, then LCP
# Experiment: X-ray crystal structure (LCP), […] Å
# Type: binding
# Conditions: ternary complex with disulfide-tethered peptide TAMRA-APY(Dab)VTASCR and Mn2+; pH 6.0; LLO donor site; from hydrolysis of native LLO mixture (C55 and C60) during crystallization, modelled as C60
# T1 sequence (O29867 whole entry G617C): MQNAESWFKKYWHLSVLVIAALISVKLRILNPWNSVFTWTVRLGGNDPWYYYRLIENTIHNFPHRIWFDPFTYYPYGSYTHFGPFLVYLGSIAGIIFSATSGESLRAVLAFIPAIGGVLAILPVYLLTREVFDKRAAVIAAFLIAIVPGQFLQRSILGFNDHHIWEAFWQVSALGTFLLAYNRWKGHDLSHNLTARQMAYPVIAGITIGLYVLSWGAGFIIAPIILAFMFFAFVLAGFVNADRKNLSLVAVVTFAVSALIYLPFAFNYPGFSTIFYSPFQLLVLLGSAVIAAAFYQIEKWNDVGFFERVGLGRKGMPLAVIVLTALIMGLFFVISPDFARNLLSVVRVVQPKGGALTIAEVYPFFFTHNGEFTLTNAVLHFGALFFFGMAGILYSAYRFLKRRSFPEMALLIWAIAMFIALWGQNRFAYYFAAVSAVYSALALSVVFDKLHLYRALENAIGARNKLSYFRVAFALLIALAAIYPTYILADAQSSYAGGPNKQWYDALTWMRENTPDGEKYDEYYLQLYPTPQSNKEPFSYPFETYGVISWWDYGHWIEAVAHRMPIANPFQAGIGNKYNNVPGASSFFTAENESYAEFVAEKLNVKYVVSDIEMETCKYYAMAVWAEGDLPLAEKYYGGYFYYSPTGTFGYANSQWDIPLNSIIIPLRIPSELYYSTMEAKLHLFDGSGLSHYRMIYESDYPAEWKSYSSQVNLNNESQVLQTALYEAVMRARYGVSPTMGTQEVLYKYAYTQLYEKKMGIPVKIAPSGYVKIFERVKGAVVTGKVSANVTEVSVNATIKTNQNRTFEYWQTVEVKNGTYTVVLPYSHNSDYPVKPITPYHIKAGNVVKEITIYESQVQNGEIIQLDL
smiles,measurement,value
C/C(=C/CC/C(C)=C\CC/C(C)=C\CC/C(C)=C/CC/C(C)=C\CC/C(C)=C\CC[C@H](C)CCOP(=O)(O)O)CC/C=C(/C)CC/C=C(/C)CCCC(C)CCCC(C)CCCC(C)C (stereo partly shown) [dolichol-phosphate],"X-ray crystal structure (LCP), 2.7 Å","LLO binding site was occupied by a dolichol-phosphate, instead of an intact LLO"
